pIC50: −log10 of the molar value.
What was measured:
KRAS Q61H = KRAS Q61H (Homo sapiens (Human), UniProt P01116+P62937, Q61H); test: Ras-Raf (BRAF RBD) disruption / FRET / MOA assay, KRAS Q61H; format: biochemical; settings: Ras-Raf disruption/FRET/MOA assay; class symbols; read-out: KRAS Q61H FRET data IC50
Method in brief: (§1)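 Compounds (30 μM top final, 10-point 3-fold dilutions) incubated 3 h at 25° C with nucleotide-loaded Ras, cyclophilin A and BRAF RBD. Detection with 10 nM anti-His Eu-W1024 and 50 nM anti-GST allophycocyanin over another 1.5 h. Lowered TR-FRET ratio relative to DMSO wells gives IC50.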

K-Ras G13C = K-Ras G13C (Homo sapiens (Human), UniProt P01116+P62937, G13C); test: Ras-Raf (BRAF RBD) disruption / FRET / MOA assay, KRAS G13C; format: biochemical; settings: KRAS G13C; Ras-Raf disruption/FRET/MOA assay; read-out: IC50* KRAS G13C FRET data
Sequence of K-Ras G13C (P01116-2 other isoform, or with tags, fused parts or gaps G13C): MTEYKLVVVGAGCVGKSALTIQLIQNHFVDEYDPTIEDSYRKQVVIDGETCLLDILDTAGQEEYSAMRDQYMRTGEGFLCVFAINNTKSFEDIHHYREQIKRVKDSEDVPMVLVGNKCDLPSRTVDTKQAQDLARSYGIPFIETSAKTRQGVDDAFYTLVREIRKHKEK
Sequence of K-Ras G13C (P62937 whole entry): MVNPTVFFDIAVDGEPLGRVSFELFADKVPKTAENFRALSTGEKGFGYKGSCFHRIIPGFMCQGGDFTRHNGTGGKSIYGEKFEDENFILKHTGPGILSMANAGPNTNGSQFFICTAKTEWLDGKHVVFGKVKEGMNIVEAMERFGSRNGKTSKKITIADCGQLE
Method in brief: (§2)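 A 10-point, 3-fold dilution series topping at 30 μM final was incubated 3 h at 25° C with the Ras/cyclophilin A/BRAF RBD mixture.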

KRAS G12S = KRAS G12S (Homo sapiens (Human), UniProt P01116+P62937, G12S); test: Ras-Raf (BRAF RBD) disruption / FRET / MOA assay, KRAS G12S; format: biochemical; settings: Ras-Raf disruption/FRET/MOA assay; class symbols; read-out: KRAS G12S FRET data IC50
Sequence of KRAS G12S (P01116-2 other isoform, or with tags, fused parts or gaps G12S): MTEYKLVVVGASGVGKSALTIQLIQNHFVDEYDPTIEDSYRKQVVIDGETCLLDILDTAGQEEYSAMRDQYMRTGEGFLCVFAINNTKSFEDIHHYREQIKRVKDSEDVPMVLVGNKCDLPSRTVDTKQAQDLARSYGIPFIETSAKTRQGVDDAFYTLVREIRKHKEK
Sequence of KRAS G12S (P62937 whole entry): as the sequence (P62937 whole entry) above
Method in brief: as §2

K-Ras G12C = K-Ras G12C (Homo sapiens (Human), UniProt P01116+P62937, G12C); test: Ras-Raf (BRAF RBD) disruption / FRET / MOA assay, KRAS G12C; format: biochemical; settings: KRAS G12C; Ras-Raf disruption/FRET/MOA assay; read-out: IC50* KRAS G12C FRET data
Sequence of K-Ras G12C (P01116-2 other isoform, or with tags, fused parts or gaps G12C): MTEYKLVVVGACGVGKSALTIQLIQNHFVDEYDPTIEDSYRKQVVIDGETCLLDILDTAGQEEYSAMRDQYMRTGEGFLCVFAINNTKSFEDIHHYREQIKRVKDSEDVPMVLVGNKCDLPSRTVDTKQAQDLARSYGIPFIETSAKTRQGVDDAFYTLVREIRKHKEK
Sequence of K-Ras G12C (P62937 whole entry): as the sequence (P62937 whole entry) above
Method in brief: as §2

NCI-H358 (K-Ras G12C) = test: CellTiter-Glo cell viability assay, NCI-H358; format: cell-based, human; settings: Homo sapiens, NCI-H358, 120 h, NCI-H358, 5-day treatment; class symbols; read-out: Additional H358 Cell Viability assay data (K-Ras G12C, IC50)
Method in brief: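 Cells seeded, compound added directly, 5-day exposure. Plates to RT ~30 min, CellTiter-Glo luminescence read. Normalized to DMSO avg (x100); 4-parameter logistic fit.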

NRAS Q61K = NRAS Q61K (Homo sapiens (Human), UniProt P01111+P62937, Q61K); test: Ras-Raf (BRAF RBD) disruption / FRET / MOA assay, NRAS Q61K; format: biochemical; settings: NRAS Q61K; Ras-Raf disruption/FRET/MOA assay; read-out: IC50* NRAS Q61K FRET data
Sequence of NRAS Q61K (P01111 whole entry Q61K): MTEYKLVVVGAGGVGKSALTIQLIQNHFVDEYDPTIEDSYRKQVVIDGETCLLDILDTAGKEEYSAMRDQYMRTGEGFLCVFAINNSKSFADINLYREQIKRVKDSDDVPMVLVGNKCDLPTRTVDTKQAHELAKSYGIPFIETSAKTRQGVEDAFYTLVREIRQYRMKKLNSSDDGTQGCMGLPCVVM
Sequence of NRAS Q61K (P62937 whole entry): as the sequence (P62937 whole entry) above
Method in brief: as §1

KRAS WT = KRAS WT (Homo sapiens (Human), UniProt P01116+P62937); test: Ras-Raf (BRAF RBD) disruption / FRET / MOA assay, KRAS WT; format: biochemical; settings: read-out: IC50* KRAS WT FRET data
Sequence of KRAS WT (P01116-2 other isoform, or with tags, fused parts or gaps): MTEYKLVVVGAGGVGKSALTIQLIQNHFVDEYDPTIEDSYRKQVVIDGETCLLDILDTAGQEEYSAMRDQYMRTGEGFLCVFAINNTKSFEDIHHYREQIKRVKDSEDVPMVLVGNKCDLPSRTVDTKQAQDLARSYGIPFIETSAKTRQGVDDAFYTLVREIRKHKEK
Sequence of KRAS WT (P62937 whole entry): as the sequence (P62937 whole entry) above
Method in brief: as §2

KRAS G12V = KRAS G12V (Homo sapiens (Human), UniProt P01116+P62937, G12V); test: Ras-Raf (BRAF RBD) disruption / FRET / MOA assay, KRAS G12V; format: biochemical; settings: read-out: IC50* KRAS G12V FRET data
Sequence of KRAS G12V (P01116-2 other isoform, or with tags, fused parts or gaps G12V): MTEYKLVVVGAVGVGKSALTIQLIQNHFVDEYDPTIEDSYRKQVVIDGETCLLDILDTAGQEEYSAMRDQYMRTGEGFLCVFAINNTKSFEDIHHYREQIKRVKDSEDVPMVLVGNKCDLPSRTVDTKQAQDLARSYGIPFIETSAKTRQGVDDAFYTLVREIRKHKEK
Sequence of KRAS G12V (P62937 whole entry): as the sequence (P62937 whole entry) above
Method in brief: as §2

KRAS G13D = KRAS G13D (Homo sapiens (Human), UniProt P01116+P62937, G13D); test: Ras-Raf (BRAF RBD) disruption / FRET / MOA assay, KRAS G13D; format: biochemical; settings: read-out: IC50* KRAS G13D FRET data
Sequence of KRAS G13D (P01116-2 other isoform, or with tags, fused parts or gaps G13D): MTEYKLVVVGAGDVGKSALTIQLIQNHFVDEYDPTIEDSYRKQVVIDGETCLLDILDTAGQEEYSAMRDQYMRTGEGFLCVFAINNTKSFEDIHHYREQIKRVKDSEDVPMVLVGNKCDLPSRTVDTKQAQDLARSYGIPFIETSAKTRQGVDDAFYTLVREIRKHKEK
Sequence of KRAS G13D (P62937 whole entry): as the sequence (P62937 whole entry) above
Method in brief: as §2

Sequence of KRAS Q61H (P01116-2 other isoform, or with tags, fused parts or gaps Q61H): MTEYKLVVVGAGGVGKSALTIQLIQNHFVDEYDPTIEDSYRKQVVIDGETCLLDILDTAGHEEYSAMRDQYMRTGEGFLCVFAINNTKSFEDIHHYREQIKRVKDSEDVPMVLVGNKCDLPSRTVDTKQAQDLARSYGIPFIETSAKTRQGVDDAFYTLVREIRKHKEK
Sequence of KRAS Q61H (P62937 whole entry): as the sequence (P62937 whole entry) above

| Structure (SMILES) | pIC50 (KRAS Q61H) | pIC50 (K-Ras G13C) | pIC50 (KRAS G12S) | pIC50 (K-Ras G12C) | pIC50 (NCI-H358 (K-Ras G12C)) | pIC50 (NRAS Q61K) | pIC50 (KRAS WT) | pIC50 (KRAS G12V) | pIC50 (KRAS G13D) |
| --- | --- | --- | --- | --- | --- | --- | --- | --- | --- |
| CCn1c(-c2cccnc2[C@H](C)OC)c2c3cc(ccc31)N1CCO[C@@](C)(C[C@H](NC(=O)[C@H](C(C)C)N(C)C(=O)C3(F)CCN(C(=O)C#CC(C)(C)N(C)C)CC3)C(=O)N3CCC[C@H](N3)C(=O)OCC(C)(C)C2)C1 [Example A550] | 5.00 to 6.00 | 6.00 to 7.00 | 5.00 to 6.00 | > 8.00 | > 8.00 | 5.00 to 6.00 | 6.00 to 7.00 | 6.00 to 7.00 | 5.00 to 6.00 |
| C=CC(=O)N1CCO[C@H]2CN(C(=O)N(C)[C@H](C(=O)N[C@H]3C[C@H]4CN(CCO4)c4ccc5c(c4)c(c(-c4cccnc4[C@H](C)OC)n5CC)CC(C)(C)COC(=O)[C@@H]4CCCN(N4)C3=O)C(C)C)C[C@H]21 [Example A562] | 5.00 to 6.00 | 6.00 to 7.00 | 5.00 to 6.00 | 6.00 to 7.00 | 6.00 to 7.00 | 5.00 to 6.00 | 5.00 to 6.00 | 5.00 to 6.00 | 5.00 to 6.00 |

Source: patent US11566007B2, “Ras inhibitors” (Revolution Medicines, Inc., priority 2019, dated 2023)
